Activity calls are given as the source filed them. The calls are words filed in the database; no cut-off is given here.
Key:
Rattus norvegicus = species on record: Rattus norvegicus; assay: Nephroprotective activity in Sprague-Dawley rat assessed as reduction in FK506-induced kidney dysfunction by measuring decrease in serum creatinine level measured after 14 days; assay type: functional, organism-based; conditions: time 14.0 day
[1] = Antioxidant activity assessed as reduction in FK506-induced ROS production by […] assay; assay type: functional; conditions: dose 0.1-100 µM
LLC-PK1 = assay: Cytoprotective activity against pig LLC-PK1 cells assessed as reduction in FK506-induced cytotoxicity incubated for 2 hrs followed by FK506 stimulation and measured after 24 hrs by MTT assay; assay type: functional, cell-based; conditions: Sus scrofa, dose 12.5-100 µM, time 26.0 hrs

| SMILES | Activity (Rattus norvegicus) | Activity [1] | Activity (LLC-PK1) |
| --- | --- | --- | --- |
| O=C(O)c1cc(O)c(O)c(O)c1 | Active | Dose-Dependent Effect | Dose-Dependent Effect |
| O=C(O[C@@H]1Cc2c(O)cc(O)cc2O[C@@H]1c1cc(O)c(O)c(O)c1)c1cc(O)c(O)c(O)c1 | – | Dose-Dependent Effect | Dose-Dependent Effect |
| O=C1O[C@H]([C@@H](O)CO)C(O)=C1O | – | Active | – |
